Reference: article PMC3055678 (ACS Medicinal Chemistry Letters, 2011)

How the values were obtained:
BMK1 [1] = molecular target: T1, BMK1 (Homo sapiens, UniProt Q13164); assay: Ambit KINOMEscan single-point score; type: binding; conditions: concentration of 10 μM
panel of 402 kinases = assay: Ambit KINOMEscan ATP-site competition binding, panel of 402 kinases; conditions: concentration of 10 μM, Erk5 = BMK1
BMK1 [2] = molecular target: T1, BMK1; assay: EGF-stimulated BMK1 autophosphorylation in HeLa cells; conditions: concentration of 1 μM

T1 sequence (Q13164 whole entry): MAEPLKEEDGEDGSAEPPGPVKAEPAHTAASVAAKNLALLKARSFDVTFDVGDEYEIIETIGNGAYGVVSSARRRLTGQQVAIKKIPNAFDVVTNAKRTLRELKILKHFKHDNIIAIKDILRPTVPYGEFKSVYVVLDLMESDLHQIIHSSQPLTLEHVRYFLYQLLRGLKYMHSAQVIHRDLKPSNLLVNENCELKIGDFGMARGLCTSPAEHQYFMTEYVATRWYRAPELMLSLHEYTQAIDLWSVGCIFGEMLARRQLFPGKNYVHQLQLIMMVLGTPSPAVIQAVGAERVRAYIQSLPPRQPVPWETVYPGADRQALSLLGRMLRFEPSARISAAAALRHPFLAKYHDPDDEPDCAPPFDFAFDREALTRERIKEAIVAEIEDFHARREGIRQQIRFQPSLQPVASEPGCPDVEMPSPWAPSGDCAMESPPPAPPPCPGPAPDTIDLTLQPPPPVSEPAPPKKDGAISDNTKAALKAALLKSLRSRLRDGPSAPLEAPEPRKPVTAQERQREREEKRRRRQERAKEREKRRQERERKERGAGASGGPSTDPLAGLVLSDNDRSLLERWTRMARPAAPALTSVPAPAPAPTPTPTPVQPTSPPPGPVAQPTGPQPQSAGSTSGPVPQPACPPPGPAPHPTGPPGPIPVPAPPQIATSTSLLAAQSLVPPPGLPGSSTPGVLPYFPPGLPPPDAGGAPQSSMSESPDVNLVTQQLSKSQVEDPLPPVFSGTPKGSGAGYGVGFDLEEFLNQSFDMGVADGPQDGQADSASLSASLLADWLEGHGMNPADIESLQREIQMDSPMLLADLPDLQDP

## COc1cc(N2CCN(C)CC2)ccc1Nc1ncc2c(n1)N(C)c1ccccc1C(=O)N2 [compound 10]
BMK1 [1]
  ambit score against BMK1: 0.5
Panel of 402 kinases
  kinase hits (kinases that exhibited greater than 95% displacement from an immobilized ligand): ABL1(F317I), BRK, C-FMS, DCAMKL1, DCAMKL2, ERK5, FRK, GAK, KIT(L576P), MYLK4, TNK1, TNK2

## COc1cc(N2CCN(C)CC2)ccc1Nc1ncc2c(n1)N(C)c1ccccc1C(=O)N2C [compound 11]
BMK1 [2]
  inhibition of BMK1 autophosphorylation: significantly inhibited
BMK1 [1]
  ambit score against BMK1: 0
Panel of 402 kinases
  kinase hits (kinases that exhibited greater than 95% displacement from an immobilized ligand): DCAMKL1, DCAMKL2, ERK5, FRK, MNK2, PKD1, PKD2, RSK4∼b, TAO1, TAO3, TNK1, TNK2, ULK1, ULK2
